Test [1] has as its system A. baumannii 1650 biofilm. The experiment in a line: biofilm eradication determination assay, strain 1650. In kind it is cell-based, Acinetobacter baumannii. The conditions noted are these: 90% biofilm eradication, Table 8. As to the method:
(§1) These assays were performed as described by us previously,^26,24 as follows. Each of the A. baumannii strains were grown overnight in Mueller Hinton Broth (MHB). The next day these were used to seed fresh MHB to an OD600 of 0.5, with 150 μL then added to the wells of a 96 well plate and grown for 24 hours at 37° C. After 24 hours, the planktonic bacteria were carefully removed and fresh MHB was added with increasing concentrations of lead quinazolines. After incubation at 37° C. for 24 hours, planktonic cells were removed and biofilms were washed three times with phosphate buffered saline (PBS). Biofilms were then resuspended in PBS and plated for cell viability on tryptic soy agar. Biofilm recovery was assessed compared to no drug controls, and determined as percent eradication. This was used to determine MBEC90 values (Minimal Biofilm Eradication Concentration), where the viability of cells within the biofilm was reduced by 90%.

The subject of test [2] is A. baumannii 1652 biofilm. In words: biofilm eradication determination assay, strain 1652. It counts as cell-based, Acinetobacter baumannii. The conditions noted are these: 90% biofilm eradication, Table 8. The procedure: as §1
Another test has as its system A. baumannii 1403. The experiment in a line: minimal bactericidal concentration (MBC) assay, strain 1403. The conditions noted are these: Acinetobacter baumannii, Table 8, read-out: MBC90 1403. It counts as cell-based. An excerpt:
(§2) Lead quinazolines 4, 5, 26, 29, 27, and 30 were selected to be further evaluated for antimicrobial effects. The first assay utilized was a minimal bactericidal concentration (MBC) assay, to assess whether leads compounds were bacteriostatic or bactericidal. The six lead agents were screened to identify their MBC90 towards each of the six A. baumannii isolates used in the SAR studies (Table 8), however for simplicity only the representative data for isolate 1646 is detailed below (Table 6). […] Further to this, we were able to obtain complete eradication of bacterial growth for these two compounds at 1 μM for 24 and 5 μM for 25.
(§3) MIC and MBC assays were performed in this study as documented by us previously.^17,23,24,25 The A. baumannii strains used are detailed in Table 7.

The test system of a further test is A. baumannii 1646. In words: minimal bactericidal concentration (MBC) assay, strain 1646. In kind it is cell-based, Acinetobacter baumannii. The method, boiled down: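 MBC90 determined against A. baumannii clinical isolates to distinguish bactericidal from bacteriostatic activity, following the group's previously published MIC/MBC protocol.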
Test [3] has as its system A. baumannii 1646 biofilm. The experiment in a line: biofilm eradication determination assay, strain 1646. It counts as cell-based, Acinetobacter baumannii. As to the method:
as §1

For a further test, the system named is A. baumannii 1652. The experiment in a line: MIC assay, strain 1652. In kind it is cell-based, Acinetobacter baumannii. The conditions noted are these: strain 1652. The procedure:
as §3

Test [4] has as its system A. baumannii 1403 biofilm. In words: biofilm eradication determination assay, strain 1403. It counts as cell-based, Acinetobacter baumannii. The conditions noted are these: 90% biofilm eradication, Table 8. As to the method: as §1
Another test relates to A. baumannii 1650. In words: MIC assay, strain 1650. In kind it is cell-based, Acinetobacter baumannii. The conditions noted are these: strain 1650. As to the method:
as §3

The next test deals with A. baumannii 1651. The experiment in a line: minimal bactericidal concentration (MBC) assay, strain 1651. It counts as cell-based. The conditions noted are these: Acinetobacter baumannii, Table 8, read-out: MBC90 1651.
Text: as §2, §3

The source of these data is patent US10323007B1, “N2N N4-disubstituted quinazoline-2,4-diamines and uses thereof” (University of South Florida, priority 2016, dated 2019).

Values after ≈ are worked out from the molar mass of the structure shown. Like-named read-outs stand apart in the source and are kept apart here.

By MIC is commonly meant the lowest concentration found to suppress growth.

Take `CNc1nc(NCc2ccccc2)nc2ccc(C)cc12` [Compound 5, N^2-Benzyl-N^4,6-dimethylquinazoline-2,4-diamine]: the “MBEC90 1650” value in [1] was 21 µM. The “MBEC90 1652” value in test [2] worked out at 68 µM. Further, the MBC with A. baumannii 1403 was determined as 30 µM (≈ 8.35 µg/mL); in the test with A. baumannii 1646 (Acinetobacter baumannii, 1646, strain 1646, Table 8 and text, read-out: MBC90 1646), 0.77 µM (≈ 0.214 µg/mL); in the test on A. baumannii 1646 (Acinetobacter baumannii, Table 6, representative data for isolate 1646, read-out: MBC90), 0.8 µM (≈ 0.223 µg/mL); in the test on A. baumannii 1651, 1.5 µM (≈ 0.418 µg/mL). Also, in [3] (Table 6, representative data for isolate 1646), the MBEC90 turned out to be 2.8 µM. Besides, in test [3] (at 10 μM, strain 1646), the “reduction in biofilm viability” value worked out at 3 log. Further, the “MBEC90 1646” value in test [3] (strain 1646, 90% biofilm eradication, Table 8 and text) was found to be 2.8 µM. The MIC in the test on A. baumannii 1652 (Acinetobacter baumannii, Table 2, read-out: 1652 MIC) amounted to 20 µM (≈ 5.57 µg/mL); with A. baumannii 1652 (Acinetobacter baumannii, lead quinazolines, Table 8, read-out: MIC 1652), 20 µM (≈ 5.57 µg/mL); in the test on A. baumannii 1652 (Tables 1, 3, 4, 5 and footnotes, read-out: 1652 MIC), 20 µM (≈ 5.57 µg/mL); in the test with A. baumannii 1650 (Acinetobacter baumannii, Table 2, read-out: 1650 MIC), 50 µM (≈ 13.9 µg/mL); in the test on A. baumannii 1650 (Acinetobacter baumannii, lead quinazolines, Table 8, read-out: MIC 1650) it was 35 µM (≈ 9.74 µg/mL); with A. baumannii 1650 (Tables 1, 3, 4, 5 and footnotes, read-out: 1650 MIC), 50 µM (≈ 13.9 µg/mL). Also, the “MBEC90 1403” value in test [4] came to 13 µM.
